Source: patent US20240208961A1, “EIF4E INHIBITORS AND USES THEREOF” (PIC Therapeutics, Inc., priority 2022, published 2024)
Several values for one entry are separate records, joined by “and”; a condition that tells them apart may be missing. Equal values may be shown once. Read-outs that look alike come from different tables or passages of the source.

Columns and labels:
[1] = Pharmacokinetic studies of certain compounds in female Balb/c mice (Example 5); format: in vivo
Summary of the method: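 Female Balb/c mice (N=9) were fasted overnight and given compound PO as a suspension in 1% CMC/0.2% Tween 80 or IV in 5% DMSO/5% Solutol HS15/90% saline. Facial-vein plasma was taken from 0.083 to 24 h and assayed by LC-MS. Parameters are non-compartmental, and F was based on AUCINF or AUClast.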

ZR-75-1 = assay: Cell viability assay, adherent cell line, 5 day Alamar Blue (Example 8): ZR-75-1; format: cell-based; details: Homo sapiens, 120 h, ZR-75-1, Breast Cancer Cell Viability
[2] = I-8 IV 1 mg/kg, 8 hr, BQL = below quantifiable limit of 3.00 ng/mL
[3] = I-8 IV 1 mg/kg, 24 hr, BQL = below quantifiable limit of 3.00 ng/mL

For `CC(C)Cc1sc(Nc2ncc(-c3cccs3)cc2C(=O)O)nc1C1=CCCC1` [Compound I-8], the “Plasma concentration Individual” value ([1]; I-8 IV 1 mg/kg, 0.083 hr, 1 mg/kg) was 2020 ng/mL and 1630 ng/mL, the “Plasma concentration Individual” value ([1]; I-8 IV 1 mg/kg, 0.25 hr, 1 mg/kg) was 632 ng/mL and 700 ng/mL and the “Plasma concentration Individual” value ([1]; I-8 IV 1 mg/kg, 0.5 hr, 1 mg/kg) was 309 ng/mL and 296 ng/mL. The “Plasma concentration Individual” value ([1]; I-8 IV 1 mg/kg, 1 hr, 1 mg/kg) was 66.5 ng/mL and 97.1 ng/mL, the “Plasma concentration Individual” value ([1]; I-8 IV 1 mg/kg, 2 hr, 1 mg/kg) was 25.8 ng/mL and 16.3 ng/mL and the “Plasma concentration Individual” value ([1]; I-8 IV 1 mg/kg, 4 hr, 1 mg/kg) was 7.83 ng/mL and 8.03 ng/mL. For the same compound, the “Plasma concentration Individual” value [1, 2] was “BQL”, the “Plasma concentration Mean” value [1, 2] was “BQL” and the “Plasma concentration Individual” value [1, 3] was “BQL”. For the same compound, the “Plasma concentration Mean” value [1, 3] was “BQL”, the F ([1]; I-8 PO 50 mg/kg vs IV 1 mg/kg) was 27.8% and the “Plasma concentration Individual” value ([1]; I-8 PO 50 mg/kg, 0.083 hr, 50 mg/kg) was 482 ng/mL and 270 ng/mL. The “Plasma concentration Individual” value ([1]; I-8 PO 50 mg/kg, 0.25 hr, 50 mg/kg) was 1250 ng/mL and 2030 ng/mL, the “Plasma concentration Individual” value ([1]; I-8 PO 50 mg/kg, 0.5 hr, 50 mg/kg) was 1900 ng/mL and 3970 ng/mL and 4110 ng/mL and the “Plasma concentration Individual” value ([1]; I-8 PO 50 mg/kg, 1 hr, 50 mg/kg) was 3600 ng/mL and 2260 ng/mL. The “Plasma concentration Individual” value ([1]; I-8 PO 50 mg/kg, 2 hr, 50 mg/kg) was 2510 ng/mL and 1700 ng/mL, the “Plasma concentration Individual” value ([1]; I-8 PO 50 mg/kg, 4 hr, 50 mg/kg) was 536 ng/mL and 958 ng/mL and the “Plasma concentration Individual” value ([1]; I-8 PO 50 mg/kg, 8 hr, 50 mg/kg) was 127 ng/mL and 134 ng/mL. For the same compound, the “Plasma concentration Individual” value ([1]; I-8 PO 50 mg/kg, 24 hr, 50 mg/kg) was 5.77 ng/mL and 14.0 ng/mL and 3.49 ng/mL, the concentration at 0.083 hr ([1]; female, Balb/c, mouse, plasma, iv, 1 mg/kg, I-8 IV 1 mg/kg, 0.083 hr, read-out: Plasma concentration Individual) was 1780 ng/mL and the concentration at 0.083 hr ([1]; female, Balb/c, mouse, plasma, iv, 1 mg/kg, I-8 IV 1 mg/kg, 0.083 hr, read-out: Plasma concentration Mean) was 1810 ng/mL. The concentration at 0.25 hr ([1]; female, Balb/c, mouse, plasma, iv, 1 mg/kg, I-8 IV 1 mg/kg, 0.25 hr, read-out: Plasma concentration Individual) was 847 ng/mL, the concentration at 0.25 hr ([1]; female, Balb/c, mouse, plasma, iv, 1 mg/kg, I-8 IV 1 mg/kg, 0.25 hr, read-out: Plasma concentration Mean) was 726 ng/mL and the concentration at 0.5 hr ([1]; female, Balb/c, mouse, plasma, iv, 1 mg/kg, I-8 IV 1 mg/kg, 0.5 hr, read-out: Plasma concentration Individual) was 232 ng/mL. For the same compound, the concentration at 0.5 hr ([1]; female, Balb/c, mouse, plasma, iv, 1 mg/kg, I-8 IV 1 mg/kg, 0.5 hr, read-out: Plasma concentration Mean) was 279 ng/mL, the concentration at 1 hr ([1]; female, Balb/c, mouse, plasma, iv, 1 mg/kg, I-8 IV 1 mg/kg, 1 hr, read-out: Plasma concentration Individual) was 85.2 ng/mL and the concentration at 1 hr ([1]; female, Balb/c, mouse, plasma, iv, 1 mg/kg, I-8 IV 1 mg/kg, 1 hr, read-out: Plasma concentration Mean) was 82.9 ng/mL. It also gave a concentration at 2 hr ([1]; female, Balb/c, mouse, plasma, iv, 1 mg/kg, I-8 IV 1 mg/kg, 2 hr, read-out: Plasma concentration Individual) of 24.8 ng/mL, a concentration at 2 hr ([1]; female, Balb/c, mouse, plasma, iv, 1 mg/kg, I-8 IV 1 mg/kg, 2 hr, read-out: Plasma concentration Mean) of 22.3 ng/mL and a concentration at 4 hr ([1]; female, Balb/c, mouse, plasma, iv, 1 mg/kg, I-8 IV 1 mg/kg, 4 hr, read-out: Plasma concentration Individual) of 10 ng/mL. It also gave a concentration at 4 hr ([1]; female, Balb/c, mouse, plasma, iv, 1 mg/kg, I-8 IV 1 mg/kg, 4 hr, read-out: Plasma concentration Mean) of 8.62 ng/mL, a concentration at 0.083 h ([1]; female, Balb/c, mouse, plasma, po, 50 mg/kg, I-8 PO 50 mg/kg, 0.083 hr, read-out: Plasma concentration Individual) of 247 ng/mL and a concentration at 0.083 h ([1]; female, Balb/c, mouse, plasma, po, 50 mg/kg, I-8 PO 50 mg/kg, 0.083 hr, read-out: Plasma concentration Mean) of 333 ng/mL. The concentration at 0.25 h ([1]; female, Balb/c, mouse, plasma, po, 50 mg/kg, I-8 PO 50 mg/kg, 0.25 hr, read-out: Plasma concentration Individual) was 1220 ng/mL, the concentration at 0.25 h ([1]; female, Balb/c, mouse, plasma, po, 50 mg/kg, I-8 PO 50 mg/kg, 0.25 hr, read-out: Plasma concentration Mean) was 1500 ng/mL and the concentration at 0.5 hr ([1]; female, Balb/c, mouse, plasma, po, 50 mg/kg, I-8 PO 50 mg/kg, 0.5 hr, read-out: Plasma concentration Mean) was 3330 ng/mL. For the same compound, the concentration at 1 h ([1]; female, Balb/c, mouse, plasma, po, 50 mg/kg, I-8 PO 50 mg/kg, 1 hr, read-out: Plasma concentration Individual) was 1810 ng/mL, the concentration at 1 h ([1]; female, Balb/c, mouse, plasma, po, 50 mg/kg, I-8 PO 50 mg/kg, 1 hr, read-out: Plasma concentration Mean) was 2560 ng/mL and the concentration at 2 h ([1]; female, Balb/c, mouse, plasma, po, 50 mg/kg, I-8 PO 50 mg/kg, 2 hr, read-out: Plasma concentration Individual) was 1670 ng/mL. The concentration at 2 h ([1]; female, Balb/c, mouse, plasma, po, 50 mg/kg, I-8 PO 50 mg/kg, 2 hr, read-out: Plasma concentration Mean) was 1960 ng/mL, the concentration at 4 h ([1]; female, Balb/c, mouse, plasma, po, 50 mg/kg, I-8 PO 50 mg/kg, 4 hr, read-out: Plasma concentration Individual) was 530 ng/mL and the concentration at 4 h ([1]; female, Balb/c, mouse, plasma, po, 50 mg/kg, I-8 PO 50 mg/kg, 4 hr, read-out: Plasma concentration Mean) was 675 ng/mL. For the same compound, the concentration at 8 h ([1]; female, Balb/c, mouse, plasma, po, 50 mg/kg, I-8 PO 50 mg/kg, 8 hr, read-out: Plasma concentration Individual) was 155 ng/mL, the concentration at 8 h ([1]; female, Balb/c, mouse, plasma, po, 50 mg/kg, I-8 PO 50 mg/kg, 8 hr, read-out: Plasma concentration Mean) was 139 ng/mL and the concentration at 24 h ([1]; female, Balb/c, mouse, plasma, po, 50 mg/kg, I-8 PO 50 mg/kg, 24 hr, read-out: Plasma concentration Mean) was 7.75 ng/mL. It also gave an AUC(0-inf) ([1]; mouse, plasma, I-8 IV 1 mg/kg) of 717 ng·h/mL, an AUC(0-t) ([1]; mouse, plasma, I-8 IV 1 mg/kg) of 705 ng·h/mL and a C0 ([1]; mouse, plasma, I-8 IV 1 mg/kg) of 2850 ng/mL. It also gave an MRT inf ([1]; mouse, plasma, I-8 IV 1 mg/kg) of 28.3 min, an MRT last ([1]; mouse, plasma, I-8 IV 1 mg/kg) of 23.2 min and a clearance ([1]; mouse, plasma, I-8 IV 1 mg/kg) of 23.2 mL/min/kg. It also gave a half-life ([1]; mouse, plasma, I-8 IV 1 mg/kg) of 58.2 min, a Vd ([1]; mouse, plasma, I-8 IV 1 mg/kg, read-out: Vss) of 0.657 L/kg and an AUC(0-inf) ([1]; mouse, plasma, I-8 PO 50 mg/kg) of 9970 ng·h/mL. For the same compound, the AUC(0-t) ([1]; mouse, plasma, I-8 PO 50 mg/kg) was 9930 ng·h/mL, the Cmax ([1]; mouse, plasma, I-8 PO 50 mg/kg) was 3330 ng/mL and the MRT inf ([1]; mouse, plasma, I-8 PO 50 mg/kg) was 182 min. It also gave an MRT last ([1]; mouse, plasma, I-8 PO 50 mg/kg) of 176 min, a Tmax ([1]; mouse, plasma, I-8 PO 50 mg/kg) of 30 min and a half-life ([1]; mouse, plasma, I-8 PO 50 mg/kg) of 197 min. The IC50 (ZR-75-1) was ≤ 1000 nM.
